Drawing on patent US20220235065A1 (Epizyme, Inc., priority 2016, published 2022), this text covers IC50 for 29 compounds.

The subject of assay [1] is H3K9me2 in MDA-MB-231 cells. As to the kind of experiment: MDA-MB-231 H3K9me2 in-cell western assay. Format: cell-based. To be noted: Homo sapiens, read-out: EHMT2 ICW (IC50 μM). From the text: MDA-MB-231 cell line was purchased from ATCC (Manassas, Va., USA). RPMI/Glutamax medium, Penicillin-Streptomycin, Heat Inactivated Fetal Bovine Serum, and D-PBS were purchased from Life Technologies (Grand Island, N.Y., USA). Odyssey blocking buffer, 800CW goat anti-mouse IgG (H+L) antibody, and Licor Odyssey Infrared Scanner were purchased from Licor Biosciences, Lincoln, Nebr., USA. H3K9me2 mouse monoclonal antibody (Cat #1220) was purchased from Abcam (Cambridge, Mass., USA). 16% Paraformaldehyde was purchased from Electron Microscopy Sciences, Hatfield, Pa., USA). MDA-MB-231 cells were maintained in complete growth medium (RPMI supplemented with 10% v/v heat inactivated fetal bovine serum) and cultured at 37° C. under 5% CO2. UNC0638 was purchased from Sigma-Aldrich (St. Louis, Mo., USA).
General Procedure for MDA-MB-231 HEK9me2 In-Cell Western Assay.
Compound (100 nL) was added directly to 384-well cell plate. MDA-MB-231 cells (ATCC) were seeded in assay medium (RPMI/Glutamax supplemented with 10% v/v heat inactivated fetal bovine serum and 1% Penicillin/Streptomycin, Life Technologies) at a concentration of 3,000 cells per well to a Poly-D-Lysine coated 384-well cell culture plate with 50 μL per well. Plates were incubated at 37° C., 5% CO2 for 48 hours (BD Biosciences 356697). Plates were incubated at room temperature for 30 minutes and then incubated at 37° C., 5% CO2 for additional 48 hours. After the incubation, 50 μL per well of 8% paraformaldehyde (Electron Microscopy Sciences) in PBS was added to the plates and incubated at room temperature for 20 minutes. Plates were transferred to a Biotek 406 plate washer and washed 2 times with 100 μL per well of wash buffer (1×PBS containing 0.3% Triton X-100 (v/v)). Next, 60 μL per well of Odyssey blocking buffer (Licor Biosciences) was added to each plate and incubated for 1 hour at room temperature. Blocking buffer was removed and 20 μL of monoclonal primary antibody α-H3K9me2 (Abcam) diluted 1:800 in Odyssey buffer with 0.1% Tween 20 (v/v) were added and plates were incubated overnight (16 hours) at 4° C. Plates were washed 5 times with 100 μL per well of wash buffer. Next 20 μL per well of secondary antibody was added (1:500 800CW […] anti-mouse IgG (H+L) antibody (Licor Biosciences), 1:1000 DRAQ5 (Cell Signaling Technology) in Odyssey buffer with 0.1% Tween 20 (v/v)) and incubated for 1 hour at room temperature. The plates were washed 5 times with 100 μL per well wash buffer then 2 times with 100 μL per well of water. Plates were allowed to dry at room temperature then imaged on a Licor Odyssey Infrared Scanner (Licor Biosciences) which measured integrated intensity at 700 nm and 800 nm wavelengths. Both 700 and 800 channels were scanned.
% Inhibition Calculation.
First, the ratio for each well was determined by
Each plate included fourteen control wells of DMSO only treatment (Minimum Inhibition) as well as fourteen control wells (background wells) for maximum inhibition treated with control compound UNC0638 (Background wells).
The average of the ratio values for each well was calculated and used to determine the percent inhibition for each test well in the plate. Control compound was serially diluted three-fold in DMSO for a total of 10 test concentrations beginning at 1 μM. Percent inhibition was calculated as: […]
IC50 curves were generated using triplicate wells per concentration of compound. The IC50 is the concentration of compound at which measured methylation is inhibited by 50% as interpolated from the dose response curves. IC50 values were calculated using a non-linear regression (variable slope-four parameter fit model) with by the following formula
where Top is fixed at 100% and Bottom is fixed to 0%, [I]=concentration of inhibitor, IC50=half maximal inhibitory concentration and n=Hill Slope.

In the next assay the target is T1, EHMT1 (Homo sapiens, UniProt Q9H9B1).
T1 sequence (Q9H9B1 1-1298): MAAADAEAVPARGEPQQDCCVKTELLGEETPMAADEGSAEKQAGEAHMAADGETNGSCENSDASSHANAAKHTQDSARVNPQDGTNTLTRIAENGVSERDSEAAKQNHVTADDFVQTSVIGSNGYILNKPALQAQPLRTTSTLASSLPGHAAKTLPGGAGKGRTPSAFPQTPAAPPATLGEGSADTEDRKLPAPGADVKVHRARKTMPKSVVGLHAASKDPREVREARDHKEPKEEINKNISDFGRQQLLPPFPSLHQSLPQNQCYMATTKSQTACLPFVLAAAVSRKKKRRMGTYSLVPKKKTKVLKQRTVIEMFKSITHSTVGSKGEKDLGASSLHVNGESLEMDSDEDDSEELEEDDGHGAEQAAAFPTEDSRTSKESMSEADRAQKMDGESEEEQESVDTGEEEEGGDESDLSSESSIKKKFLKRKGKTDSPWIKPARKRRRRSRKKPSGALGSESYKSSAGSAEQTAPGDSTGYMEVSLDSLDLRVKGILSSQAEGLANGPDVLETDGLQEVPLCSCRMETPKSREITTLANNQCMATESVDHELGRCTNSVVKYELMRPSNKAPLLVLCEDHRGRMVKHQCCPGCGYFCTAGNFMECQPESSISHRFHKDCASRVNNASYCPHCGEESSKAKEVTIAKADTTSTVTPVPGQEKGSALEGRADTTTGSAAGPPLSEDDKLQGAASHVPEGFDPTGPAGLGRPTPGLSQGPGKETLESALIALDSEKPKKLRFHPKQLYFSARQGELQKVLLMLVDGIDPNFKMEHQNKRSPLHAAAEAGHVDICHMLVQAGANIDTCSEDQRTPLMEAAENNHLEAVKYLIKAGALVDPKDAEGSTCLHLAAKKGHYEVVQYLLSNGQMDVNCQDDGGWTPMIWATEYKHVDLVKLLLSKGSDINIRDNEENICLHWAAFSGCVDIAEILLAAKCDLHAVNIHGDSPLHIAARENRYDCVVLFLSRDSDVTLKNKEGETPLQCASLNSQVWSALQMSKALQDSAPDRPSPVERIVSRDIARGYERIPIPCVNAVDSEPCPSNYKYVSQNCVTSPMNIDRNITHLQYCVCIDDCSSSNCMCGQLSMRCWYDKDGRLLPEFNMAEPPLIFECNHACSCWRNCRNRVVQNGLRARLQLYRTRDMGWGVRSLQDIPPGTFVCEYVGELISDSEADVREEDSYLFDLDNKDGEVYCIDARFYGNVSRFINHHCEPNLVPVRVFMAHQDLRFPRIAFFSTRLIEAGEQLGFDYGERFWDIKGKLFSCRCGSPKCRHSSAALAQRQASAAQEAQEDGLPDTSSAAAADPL
As to the kind of experiment: EHMT1 PEP (EHMT1 peptide enzyme assay). To be noted: peptide substrate enzyme assay. The format is biochemical.

Structures can show the parent of a compound that is named as a salt.

Consider `CNc1cc(C)nc(Nc2ccc(OC)c(-c3cn4c(n3)CN(C)CC4)c2)n1` [Compound 6], for which the IC50 (in assay [1]; against EHMT1) was > 10 µM in each case.
Take `CNc1cc(C)nc(Nc2ccc(OC)c(-c3cn4c(n3)CNCC4)c2)n1` [Compound 7]: the half-inhibitory concentration (IC50) (as a rule, the point on the concentration scale where inhibition reaches its midpoint) was 1 to 10 µM in assay [1] and 0.1 to 1 µM against EHMT1.
For `CNc1cc(C)nc(Nc2ccc(OC)c(-c3nc4n(n3)CCNC4)c2)n1` [Compound 8, 2-N-(4-methoxy-3-[4H,5H,6H,7H-[1,2,4]triazolo[1,5-a]pyrazin-2-yl]phenyl)-4-N,6-dimethylpyrimidine-2,4-diamine hydrochloride], in that order: > 10 µM and 1 to 10 µM.
For `CNc1cc(C)nc(Nc2ccc(OC)c(-c3nc4n(n3)CCN(C)C4)c2)n1` [Compound 9], in that order: > 10 µM and > 10 µM.
`CNc1cc(C)nc(Nc2ccc(OC)c(-n3ncc4c3CCN(C)C4)c2)n1` [Compound 10]: the 50% inhibitory concentration (IC50) (in assay [1]; on EHMT1) was 0.1 to 1 µM in each case.
Take `CNc1cc(C)nc(Nc2ccc(OC)c(-c3nnc(C)[nH]3)c2)n1` [Compound 11]: the 50% inhibitory concentration (IC50) (in assay [1]; against EHMT1) was > 10 µM throughout.
For the compound `CNc1cc(C)nc(Nc2ccc(OC)c(-c3cn[nH]c3)c2)n1` [Compound 12, 2-N-[4-methoxy-3-(1H-pyrazol-4-yl)phenyl]-4-N,6-dimethylpyrimidine-2,4-diamine], the IC50 (in assay [1]; against EHMT1) was > 10 µM each time.
With `CNc1cc(C)nc(Nc2ccc(OC)c(-n3cc4ccccc4n3)c2)n1` [Compound 146], the values for the half-inhibitory concentration (IC50) (in assay [1]; on EHMT1) were 1 to 10 µM and 0.1 to 1 µM, respectively.
On the same counts, the results for `CNc1cc(C)nc(Nc2ccc(OC)c(-n3cc4cc(Br)ccc4n3)c2)n1` [Compound 148] are 1 to 10 µM and 0.1 to 1 µM.
On the same counts, the results for `CNc1cc(C)nc(Nc2ccc(OC)c(-n3cc4cncc(C)c4n3)c2)n1` [Compound 151] are 0.1 to 1 µM and 0.1 to 1 µM.
In the case of `CNc1cc(C)nc(Nc2ccc(OC)c(-c3ccc4nc(C)[nH]c4c3)c2)n1` [Compound 155], the IC50 (in assay [1]; against EHMT1) was > 10 µM in each case.
On to `CNc1cc(C)nc(Nc2ccc(OC)c(-c3ccc4cc(C)[nH]c4c3)c2)n1` [Compound 156], for which the values for the 50% inhibitory concentration (IC50) (in assay [1]; at EHMT1) were 1 to 10 µM and > 10 µM, respectively.
For `CNc1cc(C)nc(Nc2ccc(OC)c(-c3cc4ccncc4[nH]3)c2)n1` [Compound 157, N2-(4-methoxy-3-(1H-pyrrolo[2,3-c]pyridin-2-yl)phenyl)-N4,6-dimethylpyrimidine-2,4-diamine], in that order: 0.1 to 1 µM and < 0.1 µM.
Regarding `CNc1cc(C)nc(Nc2ccc(OC)c(-c3cc4cnccc4n3C)c2)n1` [Compound 158], the IC50 is 0.1 to 1 µM in assay [1] and < 0.1 µM at EHMT1.
On the same counts, the results for `CNCc1cn(-c2cc(Nc3nc(C)cc(NC)n3)ccc2OC)nn1` [Compound 159, N2-(4-methoxy-3-(4-((methylamino)methyl)-1H-1,2,3-triazol-1-yl)phenyl)-N4,6-dimethylpyrimidine-2,4-diamine] are 0.1 to 1 µM and < 0.1 µM.
On the same counts, the results for `CNc1cc(C)nc(Nc2ccc(OC)c(-n3cc(CN(C)C)c(C)n3)c2)n1` [Compound 160] are 0.1 to 1 µM and < 0.1 µM.
For `CNc1nc2cc(-n3cc(CN(C)C)nn3)c(OC)cc2n1C` [Compound 163], in that order: 1 to 10 µM and 1 to 10 µM.
Regarding `CNc1cc(C)nc(Nc2ccc(OC)c(-n3cc(C(C)NC)nn3)c2)n1` (stereo not shown) [Compound 164], the IC50 (in assay [1]; at EHMT1) was 0.1 to 1 µM in each case.
In the case of `CNc1cc(C)nc(Nc2ccc(OC)c(-n3cc(C(NC)C(F)(F)F)nn3)c2)n1` (stereo not shown) [Compound 165], the concentration for half-maximal inhibition (IC50) (in assay [1]; at EHMT1) was > 10 µM each time.
Take `CNc1cc(C)nc(Nc2ccc(OC)c(-n3cc(C(C)(C)NC)nn3)c2)n1` [Compound 166]: the half-inhibitory concentration (IC50) in assay [1] was > 10 µM; against EHMT1, 1 to 10 µM.
For the compound `CNc1ccnc(Nc2ccc(OC)c(-n3cnc(CN(C)C)c3)c2)n1` [Compound 170], the IC50 in assay [1] is 0.1 to 1 µM; against EHMT1, < 0.1 µM.
For the compound `CNc1ccnc(Nc2ccc(OC)c(-n3cc(CN(C)C)nn3)c2)n1` [Compound 171], the figures for the half-maximal inhibitory concentration (IC50) (in assay [1]; against EHMT1) were 0.1 to 1 µM and < 0.1 µM, respectively.
For `CCNCc1cn(-c2cc(Nc3nccc(NC)n3)ccc2OC)nn1` [Compound 172], in that order: 1 to 10 µM and 0.1 to 1 µM.
Regarding `CNc1ccnc(Nc2ccc(OC)c(-n3cc(CNCC4CC4)nn3)c2)n1` [Compound 173], the IC50 in assay [1] was 1 to 10 µM; at EHMT1, < 0.1 µM.
On the same counts, the results for `CNc1ccnc(Nc2ccc(OC)c(-c3cc4[nH]ncc4cn3)c2)n1` [Compound 174] are 1 to 10 µM and > 10 µM.
On the same counts, the results for `CNc1ccnc(Nc2ccc(OC)c(-c3cc4[nH]ccc4cn3)c2)n1` [Compound 175, N2-(4-methoxy-3-(1H-pyrrolo[3,2-c]pyridin-6-yl)phenyl)-N4-methylpyrimidine-2,4-diamine] are 0.1 to 1 µM and < 0.1 µM.
On the same counts, the results for `CNc1ccnc(Nc2ccc(OC)c(-n3cc(C4CC4)nn3)c2)n1` [Compound 176] are 1 to 10 µM and 0.1 to 1 µM.
For the compound `CNc1ccnc(Nc2ccc(OC)c(-n3cc(C4COC4)nn3)c2)n1` [Compound 177], the results for the IC50 (in assay [1]; at EHMT1) were > 10 µM and 1 to 10 µM, respectively.
For `CNc1ccnc(Nc2ccc(OC)c(-c3ccc4cc[nH]c4c3)c2)n1` [Compound 178], in that order: > 10 µM and > 10 µM.
